Source: patent US9161965B2, “Treatment for epilepsy” (NoNO Inc., priority 2008, dated 2015)
“Also recorded” adds a separate entry of the source.

Columns and labels:
N-type calcium channels = N-type calcium channels (Homo sapiens, UniProt Q00975); conditions: cited from earlier work
[1] = tested on: male Wistar rats with pilocarpine-induced status epilepticus; experiment: Lateral ventricle size after SE, Nissl (cresyl violet) stained brain sections; type: in vivo, rat; conditions: treated at 3 hours post-SE (0.3 and 3 nmol/gm); 14 days post-SE
Method: Following pilocarpine and Tat-NR2B9c administration, and fixing of brain sections, as described above, every 6th section was used for Niss1 staining with cresyl violet. Sections were mounted and allowed to air dry on gelatin coated slides. The sections were rehydrated in an alcohol series at 100%, 95%, 70%, and 50% each for 5 minutes. The sections are then placed in water for 1 minute, followed by the Cresyl Violet Stain for 20 to 30 minutes. Sections are rinsed (30 seconds×2) in water, and dehydrated in an alcohol series at 50% for 5 minutes (or less), 70% for 5 minutes (or less), 95% for 5 minutes (or less), 100% for 5 minutes (or less), and 100% for 5 minutes (or less). Differentiation occurs maximally at the 50% and 70% alcohol gradients. Sections were cleared in xylene for 5 minutes and coverslipped with Permount, and viewed, e.g., under 40× magnification.

[2] = tested on: rats with status epilepticus induced by the RLDP procedure; experiment: Elevated plus maze (exploratory behaviour) at 8 weeks post-SE; type: in vivo, rat; conditions: administered 3 hours post-SE, 5 minutes on maze
Method: (§1) We investigated possible behavioral effects of 60 min SE induced with the RLDP procedure. Visual-spatial memory was investigated with the Morris water maze (MWM) at 8 weeks post-SE to detect chronic cognitive impairment. The MWM is of particular usefulness with studies involving therapeutic agents, since the severity of neurodegeneration in the anterior CA1 region is strongly correlated with performance (escape latency) (Clasussen et al, 2005). […] All groups contained at least 6 animals.
The elevated plus maze is used to investigate exploratory behaviour. At 8 weeks post-SE, animals were placed on the elevated plus maze for 5 minutes and videotaped. […] Furthermore, SE animals had reduced frequency of lookouts into the open arm and rearing episodes when compared to controls (FIGS. 12 E & F).

[3] = tested on: rats with status epilepticus induced by the RLDP procedure; experiment: Morris water maze (visual-spatial memory) at 8 weeks post-SE; type: in vivo, rat; conditions: administered 3 hours post-SE
Method: as §1
In our study animals were trained on the MWM task for 14 consecutive days, with 6 trials completed daily. […] No SE animals, however, learned the task within 6 consecutive days, with no further improvement in escape latency thereafter.

animal models of stroke = conditions: applied before or 1 hour after a stroke; cited from earlier work
[4] = stroke indication; cited from earlier work
[5] = tested on: male Wistar rats with pilocarpine-induced status epilepticus; experiment: Neuron loss (NeuN-positive cell counts) after status epilepticus in the lithium-pilocarpine rat model
Method: Male Wistar rats between 350 to 400 grams were pretreated with lithium chloride (ip; 3 mEq/kg) 17 to 24 hours before systemic injection of the chemoconvulsant pilocarpine. Pilocarpine (ip; 10 mg/kg) was administered every 30 minutes until onset of status epilepticus (SE), which was defined as a loss of consciousness and continuous overt seizure activity. […] Rats generally developed SE shortly thereafter. […] SE was terminated at 1, 3 and 5 hours following onset of SE with diazepam (ip; 4 mg/kg).
Animals were anaesthetized with ketamine and Romptum, and transcardially perfused with paraformaldehyde (PFA; 4% in 0.1M phosphate buffer, pH 7.4) 2 weeks after SE induction. Brains were removed, post-fixed overnight in PFA, and then equilibrated in 30% sucrose in PBS. Brains were then frozen at −35° C. in methylbutane and stored until further use at −70° C. in scintillation vials containing frozen 30% sucrose in PBS to prevent freezer drying. The brains were coronally sectioned at 40 μm using a freezing microtome and stored at −20° C. in 24-well plates containing antifreeze solution (15% glucose, 30% ethylene glycol, 50 mMol phosphate buffer; pH 7.4).
For each animal, neuronal cells were quantified by immunohistochemical staining with NeuN, a neuronal cell specific antibody.

Sequence of N-type calcium channels (Q00975 whole entry): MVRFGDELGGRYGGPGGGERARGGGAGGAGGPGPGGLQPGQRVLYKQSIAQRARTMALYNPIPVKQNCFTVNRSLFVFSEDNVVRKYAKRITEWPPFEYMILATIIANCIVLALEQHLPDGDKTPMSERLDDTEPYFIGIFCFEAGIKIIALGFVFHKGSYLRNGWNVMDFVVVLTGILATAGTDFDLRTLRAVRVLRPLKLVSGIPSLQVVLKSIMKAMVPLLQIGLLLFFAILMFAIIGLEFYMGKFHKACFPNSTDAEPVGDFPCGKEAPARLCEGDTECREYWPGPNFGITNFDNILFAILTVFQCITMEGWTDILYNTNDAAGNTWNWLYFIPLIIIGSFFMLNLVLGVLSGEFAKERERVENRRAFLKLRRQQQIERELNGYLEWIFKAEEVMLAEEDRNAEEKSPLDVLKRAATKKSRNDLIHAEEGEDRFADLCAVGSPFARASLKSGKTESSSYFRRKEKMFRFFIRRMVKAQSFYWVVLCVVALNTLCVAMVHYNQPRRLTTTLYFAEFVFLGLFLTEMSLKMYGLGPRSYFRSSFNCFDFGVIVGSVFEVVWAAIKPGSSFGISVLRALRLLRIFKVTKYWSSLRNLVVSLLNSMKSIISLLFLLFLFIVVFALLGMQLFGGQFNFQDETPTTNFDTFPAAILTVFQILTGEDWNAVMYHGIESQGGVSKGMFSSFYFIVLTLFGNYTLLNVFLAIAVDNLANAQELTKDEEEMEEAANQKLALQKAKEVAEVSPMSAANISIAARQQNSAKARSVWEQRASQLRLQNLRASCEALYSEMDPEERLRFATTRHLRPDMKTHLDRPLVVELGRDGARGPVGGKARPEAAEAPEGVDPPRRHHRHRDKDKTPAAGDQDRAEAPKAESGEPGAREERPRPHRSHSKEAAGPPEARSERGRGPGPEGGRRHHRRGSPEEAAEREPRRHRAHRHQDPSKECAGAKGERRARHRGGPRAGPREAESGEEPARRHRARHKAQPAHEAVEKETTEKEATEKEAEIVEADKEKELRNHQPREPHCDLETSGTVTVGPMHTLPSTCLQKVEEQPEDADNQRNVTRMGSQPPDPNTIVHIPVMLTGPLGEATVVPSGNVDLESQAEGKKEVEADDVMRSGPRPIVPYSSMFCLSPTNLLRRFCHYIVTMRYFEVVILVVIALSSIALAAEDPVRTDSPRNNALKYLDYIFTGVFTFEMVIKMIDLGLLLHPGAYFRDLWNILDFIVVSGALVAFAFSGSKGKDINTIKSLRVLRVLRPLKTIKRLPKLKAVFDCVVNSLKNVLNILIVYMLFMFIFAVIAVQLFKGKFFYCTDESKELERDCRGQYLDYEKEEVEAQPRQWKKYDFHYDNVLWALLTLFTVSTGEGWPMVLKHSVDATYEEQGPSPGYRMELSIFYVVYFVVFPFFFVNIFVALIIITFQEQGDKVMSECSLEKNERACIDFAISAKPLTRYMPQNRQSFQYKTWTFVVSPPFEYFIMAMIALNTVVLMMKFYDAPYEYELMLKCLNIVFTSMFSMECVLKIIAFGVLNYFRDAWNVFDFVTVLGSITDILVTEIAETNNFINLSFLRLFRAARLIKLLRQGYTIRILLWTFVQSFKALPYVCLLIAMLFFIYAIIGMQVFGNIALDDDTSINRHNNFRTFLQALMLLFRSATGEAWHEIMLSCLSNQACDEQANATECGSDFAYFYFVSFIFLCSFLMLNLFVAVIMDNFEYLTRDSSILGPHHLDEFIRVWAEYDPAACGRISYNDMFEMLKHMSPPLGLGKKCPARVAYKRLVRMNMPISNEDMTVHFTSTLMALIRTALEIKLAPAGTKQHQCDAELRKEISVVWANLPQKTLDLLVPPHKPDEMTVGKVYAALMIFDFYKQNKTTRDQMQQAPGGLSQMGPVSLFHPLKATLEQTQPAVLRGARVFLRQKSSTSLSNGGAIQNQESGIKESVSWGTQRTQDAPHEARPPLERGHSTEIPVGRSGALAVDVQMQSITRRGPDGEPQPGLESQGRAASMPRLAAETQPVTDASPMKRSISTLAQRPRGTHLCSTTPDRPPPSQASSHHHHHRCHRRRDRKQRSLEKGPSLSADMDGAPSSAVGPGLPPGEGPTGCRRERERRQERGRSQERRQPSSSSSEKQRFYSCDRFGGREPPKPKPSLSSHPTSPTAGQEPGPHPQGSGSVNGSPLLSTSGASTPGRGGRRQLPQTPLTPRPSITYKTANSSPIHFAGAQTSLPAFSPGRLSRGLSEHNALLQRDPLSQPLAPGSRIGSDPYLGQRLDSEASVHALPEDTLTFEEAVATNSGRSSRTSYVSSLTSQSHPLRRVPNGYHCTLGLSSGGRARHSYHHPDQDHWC

Sequence: YGRKKRRQRRR [standard tat peptide]
- Binding to and inhibition of N-type calcium channels (N-type calcium channels): binds to and inhibits N-type calcium channels

Sequence: YGRKKRRQRRRKLSSIESDV (synthetic chimeric PDZ-binding ligand (PL) motif active peptide linked to HIV TAT internalization peptide, Tat-NR2B9c-(SDV))
- Size of lateral ventricles following SE [1]: reduced them to the size found in rats who had not been given pilocarpine; also recorded: dramatic reduction of lateral ventricle size; also recorded: noticeably smaller lateral ventricles
- Effects of SE on exploratory behaviour / cognitive impairment, elevated plus maze [2]: decreased these effects of SE on exploratory behavior; also recorded: reduces the cognitive impairment caused by status epilepticus
- Escape latency performance, Morris water maze [3]: improves escape latency performance, especially during the initial 5 days of acquisition learning
- Neuroprotection in animal models of stroke (animal models of stroke): highly neuroprotective
- Adverse events / side effects in phase I clinical trials [4]: without serious adverse events
- Neuroprotection / neuron loss (NeuN-positive cells), peptide administered during status epilepticus ([5]; administered 10 minutes following initiation of SE, 0.3, 3 and 9 nmol/gm, 7 days after SE): did not decrease neuron loss; also recorded: comparable to neuron loss in untreated rats; also recorded: not during
- NeuN-immunostaining of coronal sections of the dorsal hippocampus (histochemical visualization) ([5]; administered 3 hours following the insult, 2.5x and 40x magnification): increased NeuN-immunostaining; also recorded: This effect was reversed
- Neuroprotection / neuron loss (NeuN-positive cells), anterior (dorsal) CA1 region of the hippocampus ([5]; administered via femoral vein 3 hours after termination of SE, 0.3 or 3 nmol/gm, 14 days recovery): rescued neuron loss in a dose-dependent manner; also recorded: especially protective; also recorded: conferred neuroprotection; also recorded: neuroprotective in the anterior CA1 region of the hippocampus; also recorded: neuroprotective when administered after; also recorded: dose-dependent neuroprotection
- Number of surviving neuronal cells near the subicular border of the CA1 region ([5]; compared to saline-treated animals): increased the number of surviving neuronal cells
- Neuroprotection in the CA4 region ([5]; rat, in vivo): confers neuroprotection
